In patent publication US20220162561A1, “COMPOSITION FOR PROMOTING SECRETION OF EXTRACELLULAR VESICLES” (priority 2019, published 2022):

Experiments:
Type in all cases: cell-based
[1] = test system: mesenchymal stem cells derived from human umbilical cord matrix; test: Test Example 9: cell proliferation activity (cell viability), CellTiter-Glo
Description: (§1) Mesenchymal stem cells derived from human bone marrow or mesenchymal stem cells derived from human umbilical cord matrix (#C-12974, #C-12971 manufactured by Takara Bio Inc.) were suspended in mesenchymal stem cell growth medium 2 (C-28009 manufactured by Takara Bio Inc.) so as to be 2×10^3 cells/90 μL, and seeded on a 96-well cell culture treatment plate (3585 manufactured by Corning Inc.). To the seeded mesenchymal stem cells was added each 10 μL of the compounds of Examples 1 to 8 diluted to 10-fold concentration with the mesenchymal stem cell growth medium 2, and the cells were cultured for 24 hours. Next, according to the following method, the number of living cells was measured using CellTiter-Glo (Registered Trademark) Luminescent Cell Viability Assay (G7570 manufactured by Promega).
(§2) CellTiter-Glo (Registered Trademark) Substrate was dissolved in CellTiter-Glo (Registered Trademark) Buffer. The prepared solution was added to each well with 100 μL/well, then, 100 μL thereof was apportioned to a 96-well cell culture treatment white plate (356701 manufactured by Corning Inc.), and luminescence was measured with Enspire (manufactured by PerkinElmer). A relative value when the compound untreated group (control) was set to 1 was calculated.

[2] = test system: mesenchymal stem cells derived from human bone marrow; test: as above
Description: as §1, §2

[3] = test system: mesenchymal stem cells derived from human adipose tissue; test: Test Example 3: promotion of secretion of extracellular vesicles, PS Capture exosome ELISA (anti-CD63); conditions: 24 hours, absorbance 450 nm minus 620 nm
Description: Mesenchymal stem cells derived from the human adipose tissue (#C-12977 manufactured by Takara Bio Inc.) were suspended in mesenchymal stem cell growth medium 2 (C-28009 manufactured by Takara Bio Inc.) so as to be 8×10^4 cells/1.8 mL, and seeded on a 6-well cell culture treatment plate (3516 manufactured by Corning Inc.). To the seeded mesenchymal stem cells derived from human adipose tissue was added 200 μL of the compound solution of each of Examples 1 to 8 diluted to 10-fold concentration with the mesenchymal stem cell growth medium 2, or mesenchymal stem cell growth medium alone (control), and after culturing for 24 hours, the culture solution was recovered. Subsequently, the recovered culture solution was centrifuged by 20,000×g at 4° C. for 60 minutes to prepare a culture solution from which cell fragments and Large Extracellular Vesicles were removed. For the detection of the extracellular vesicles, PS Capture (trademark) exosome ELISA kit (anti-mouse IgG POD) (#297-79201 manufactured by FUJIFILM Wako Pure Chemical Corporation) was used.
To Reaction/Washing Buffer (10×) diluted 10-fold with purified water was added 1/100 amount of Exosome Binding Enhancer (100×) to prepare a Reaction/Washing Buffer (1×). The culture solution prepared as mentioned above was diluted 5-fold with the Reaction/Washing Buffer (1×). After washing the Exosome Capture 96-well plate with 300 μL of the Reaction/Washing Buffer (1×) three times, 5-fold diluted each of the culture solution or mesenchymal stem cell growth medium alone in which no cell was cultured was added to each well, and the mixture was reacted at room temperature for 2 hours while shaking with a microplate shaker. After completion of the reaction, the reaction mixture was discarded, and after washing each well with 300 μL of the Reaction/Washing Buffer (1×) three times, 100 μL of Primary Antibody Anti-CD63 (×100) diluted 1,000-fold with the Reaction/Washing Buffer (1×) was added thereto, and the mixture was reacted at room temperature for 1 hour while shaking with a microplate shaker. After completion of the reaction, the reaction mixture was discarded, and after washing each well with 300 μL of the Reaction/Washing Buffer (1×) three times, 100 μL of the Secondary Antibody HRP-conjugated Anti-mouse IgG (100×) diluted 1,000-fold with the Reaction/Washing Buffer (1×) was added thereto, and the mixture was reacted at room temperature for 1 hour while shaking with a microplate shaker. After completion of the reaction, the reaction mixture was discarded, and after washing each well with 300 μL of the Reaction/Washing Buffer (1×) five times, 100 μL of TMB Solution was added, and after shaking for 1 minute with a microplate shaker, the mixture was reacted at room temperature for 30 minutes. After completion of the reaction, 100 μL of Stop Solution was added thereto, and after shaking with a microplate shaker for 5 seconds, the absorbance at 450 nm and 620 nm was measured with Enspire (manufactured by PerkinElmer), and the absorbance at 620 nm was subtracted from the absorbance at 450 nm for each well.

[4] = test system: mesenchymal stem cells derived from human umbilical cord matrix; test: Test Example 8: cytotoxicity, LDH activity in culture solution
Description: (§3) Mesenchymal stem cells derived from human bone marrow or mesenchymal stem cells derived from human umbilical cord matrix (#C-12974, #C-12971 manufactured by Takara Bio Inc.) were suspended in mesenchymal stem cell growth medium 2 (C-28009 manufactured by Takara Bio Inc.) so as to be 8×10^4 cells/1.8 mL, and seeded on a 6-well cell culture treatment plate (3516 manufactured by Corning Inc.). To the seeded mesenchymal stem cells was added each 200 μL of the compounds of Examples 1 to 8 diluted to 10-fold concentration with the mesenchymal stem cell growth medium 2, and after culturing for 24 hours, the culture solution was recovered. The activity of lactate dehydrogenase (LDH) contained in the recovered culture solution was measured by using LDH Cytotoxicity Detection Kit (MK401 manufactured by Takara Bio Inc.). To a freeze-dried product of Solution A was added 1 mL of purified water to completely dissolve therein, then, 250 μL of Solution A and 11.25 mL of Solution B were mixed to prepare Solution C. To 100 μL of the recovered culture solution was added 100 μL of Solution C, and the mixture was reacted at room temperature for 30 minutes. Absorbance at 490 nm was measured using Enspire (manufactured by PerkinElmer). Based on the obtained measured values, a relative value when the compound untreated group (control) was set to 1 was calculated.

[5] = test system: mesenchymal stem cells derived from human bone marrow; test: as above
Description: as §3

[6] = 2 μM, 24 hours, CellTiter-Glo, control set to 1
[7] = 2 μM, 24 hours, LDH, 490 nm, control set to 1
[8] = 20 nM, 24 hours, CellTiter-Glo, control set to 1
[9] = 20 nM, 24 hours, LDH, 490 nm, control set to 1

Row | Structure (SMILES) | Relative value of luminescence [1, 6] | Relative value of luminescence [2, 6] | Difference in absorbance ([3]; Table 2, 2 μM) | Relative value of absorbance [4, 7] | Relative value of absorbance [5, 7] | Relative value of luminescence [1, 8] | Relative value of luminescence [2, 8] | Relative value of absorbance [4, 9] | Relative value of absorbance [5, 9] | also measured
1 | CC(=O)O.Cc1cc2c(C(C)C)c(O)c(O)c(C=O)c2c(O)c1-c1c(C)cc2c(C(C)C)c(O)c(O)c(C=O)c2c1O (racemic) [Example 1, (±)-Gossypol Acetate] | 0.97 | 0.91 | 1.97 | 0.78 | 0.93 |  |  |  |  | Difference in absorbance ([3]; Table 1, 2 μM): 2.15
2 | CC(=O)O.Cc1cc2c(C(C)C)c(O)c(O)c(C=O)c2c(O)c1-c1c(C)cc2c(C(C)C)c(O)c(O)c(C=O)c2c1O [Example 2, (S)-Gossypol Acetate] | 0.97 | 0.96 | 1.79 | 1.04 | 0.99 |  |  |  |  | 
3 | Cc1cc2c(C(C)C)c(O)c(O)cc2c(O)c1-c1c(C)cc2c(C(C)C)c(O)c(O)cc2c1O [Example 3, (+)-Apogossypol] |  |  | 1.33 |  |  |  |  |  |  | Relative value of luminescence ([1]; human, 24 h, 2 μM): 1.01; Relative value of luminescence ([2]; human, 24 h, 2 μM): 1.00; Relative value of absorbance ([4]; human, 24 h, 2 μM): 1.06; Relative value of absorbance ([5]; human, 24 h, 2 μM): 0.99
4 | Cc1cc2c(C(C)C)c(O)c(O)c(C=O)c2c(O)c1-c1c(C)cc2c(C(C)C)c(O)c(O)c(C=O)c2c1O [Example 4, (R)-(−)-Gossypol] |  |  | 1.51 | 0.88 | 0.97 |  |  |  |  | Relative value of luminescence ([1]; human, 24 h, 2 μM): 0.92; Relative value of luminescence ([2]; human, 24 h, 2 μM): 0.86
5 | COC1=CC(c2cc3ccccc3[nH]2)=N/C1=C\c1[nH]c(C)cc1C.CS(=O)(=O)O [Example 5, Obatoclax Mesylate] |  |  |  |  |  | 0.84 | 0.96 | 0.94 | 0.96 | Difference in absorbance ([3]; Table 1, 50 nM): 2.27
6 | CCCCCC1=C/C(=C\c2[nH]c(-c3ccc[nH]3)cc2OC)N=C1C.Cl [Example 6, Prodigiosin Hydrochloride] |  |  |  |  |  | 0.78 | 0.92 | 0.97 | 0.93 | Difference in absorbance ([3]; Table 2, 50 nM): 2.38
7 | CCCCCCCCCCCc1ccc(/C=C2\N=C(c3ccc[nH]3)C=C2OC)[nH]1.Cl [Example 7, Undecylprodigiosin Hydrochloride] |  |  |  |  |  | 0.82 | 0.82 | 1.03 | 0.99 | Difference in absorbance ([3]; Table 2, 50 nM): 1.88
8 | Cc1cc2c(C(=O)NC[C@H](C)c3ccccc3)c(O)c(O)cc2c(O)c1-c1c(C)cc2c(C(=O)NC[C@H](C)c3ccccc3)c(O)c(O)cc2c1O [Example 8, Sabutoclax] | 1.00 | 0.93 | 1.41 | 1.15 | 1.01 |  |  |  |  | 
